In patent publication US4599351A (priority 1984, dated 1986):
Converted amounts (≈) assume the structure as drawn. “And” between values parts separate entries of the source, which are not always exact repeats. Identical values can stand only once.

Tests used:
[1] = system: Pythium ultimum Sensitive (Naturally Occurring); assay: Fungitoxicity in V-8 juice agar, sensitive Pythium ultimum (Example 7); assay type: cell-based; conditions: for IC50: Globisporangium ultimum, V-8 juice agar, read-out: ED50, Pythium ultimum Sensitive (Naturally Occurring)
[2] = system: Pythium vexans Sensitive (Naturally Occurring); assay: Fungitoxicity in V-8 juice agar, sensitive Pythium vexans (Example 7); assay type: cell-based; conditions: for IC50: Phytopythium vexans, V-8 juice agar, read-out: ED50, Pythium vexans Sensitive (Naturally Occurring)
Pythium vexans Resistant = assay: microbe, parasite or virus in culture; assay type: cell-based; conditions: for ED50 Ratio R/S, Pythium vexans: ED50-resistant to ED50-sensitive; for IC50: Phytopythium vexans, read-out: ED50, Pythium vexans Resistant; for ED50 against resistant fungi (in words): resistant mutant strains of Pythium ultimum or Pythium vexans, agar studies
[3] = system: Pythium ultimum Resistant; assay: microbe, parasite or virus in culture; assay type: cell-based; conditions: for ED50 Ratio R/S, Pythium ultimum: ED50-resistant to ED50-sensitive; for IC50: Globisporangium ultimum, read-out: ED50, Pythium ultimum Resistant
Phytophthora infestans = assay: whole plant or invertebrate; assay type: in vivo
Plasmopara viticola [4] = assay: whole plant or invertebrate; assay type: in vivo
Plasmopara viticola [5] = assay: Eradicant Grape Downy Mildew control (Example 4); assay type: in vivo
Protocol: Compounds of the invention were tested for the eradicant control of the Grape Downy Mildew organism Plasmopara viticola. Detached leaves of between 70 and 80 mm diameter of 7-week-old Vitis vinifera cultivar Emperor grape seedlings were used as hosts. The leaves were inoculated with the organism and placed in an environment chamber and incubated at 18° C.-22° C. and at about 100% relative humidity for 1 to 2 days. The leaves were then sprayed with a solution of the test compound in acetone, water and a small amount of a nonionic emulsifier. The sprayed leaves were then maintained at 18° C.-22° C. and at about 100% relative humidity. Seven to nine days after inoculation, the amount of disease control was determined. The percent disease control provided by the compound of Example 1 was based on the percent disease reduction relative to nontreated check plants.

[6] = Phytophthora infestans, in Solanum lycopersicum, read-out: Fungicidal Efficacy, TLB (percent disease control)
[7] = Plasmopara viticola, in Vitis vinifera, read-out: Fungicidal Efficacy, GDM (percent disease control)
[8] = Table II Test 4, 16 ppm, infection in check plants 63%
[9] = Table II Test 4, 40 ppm, infection in check plants 63%
[10] = Table II Test 4, 100 ppm, infection in check plants 63%
[11] = Table II Test 4, 250 ppm, infection in check plants 63%
[12] = Table II Test 5, 6.4 ppm, infection in check plants 60%
[13] = Table II Test 5, 16 ppm, infection in check plants 60%
[14] = Table II Test 5, 40 ppm, infection in check plants 60%

## Cc1cccc(C)c1N(C(=O)CCl)C1CCOC1=O (stereo not shown) [CH2 Cl, reference compound]
[1]
  IC50: 0.005 µg/mL (≈ 0.0177 µM)
[2]
  IC50: 0.19 µg/mL (≈ 0.674 µM)
Pythium vexans Resistant
  ED50 Ratio R/S, Pythium vexans: 763
  IC50: 145 µg/mL (≈ 515 µM)
[3]
  ED50 Ratio R/S, Pythium ultimum: 24,000
  IC50: 120 µg/mL (≈ 426 µM)

## Cc1cccc(C)c1N(C(=O)C(C)(C)C)C1CCOC1=O (stereo not shown) [C(CH3)3]
Phytophthora infestans; [6]
  pest or weed control at 250 ppm: 0%

## Cc1cccc(C)c1N(C(=O)C(C)C)C1CCOC1=O (stereo not shown) [CH(CH3)2]
Plasmopara viticola [4]; [7]
  pest or weed control at 250 ppm: 0%
Phytophthora infestans; [6]
  pest or weed control at 250 ppm: 23%

## CCCC(=O)N(c1c(C)cccc1C)C1CCOC1=O (stereo not shown) [Example 1, 3-(N-butyryl-N-2,6-dimethylphenylamino)-gamma-butyrolactone]
[1]
  IC50: 0.02 µg/mL (≈ 0.0726 µM)
[2]
  IC50: 0.43 µg/mL (≈ 1.56 µM)
Pythium vexans Resistant
  ED50 Ratio R/S, Pythium vexans: 100
  IC50: 43 µg/mL (≈ 156 µM)
  ED50 against resistant fungi (in words): substantially better ED50's against resistant fungi than the compounds where R^1 has less than 3 carbon atoms
[3]
  ED50 Ratio R/S, Pythium ultimum: 4,750
  IC50: 95 µg/mL (≈ 345 µM)
Plasmopara viticola [4]; [7]
  pest or weed control at 250 ppm: 100%
Plasmopara viticola [4]; in vivo
  fungicidal activity toward Grape Downy Mildew (in words): unexpectedly high fungicidal activity toward Grape Downy Mildew
Phytophthora infestans; [6]
  pest or weed control at 250 ppm: 99%
Phytophthora infestans; [8]
  Percent Control of TLB: 0%
Phytophthora infestans; [9]
  Percent Control of TLB: 48%
Phytophthora infestans; [10]
  Percent Control of TLB: 76%
Phytophthora infestans; [11]
  Percent Control of TLB: 94%
Plasmopara viticola [5]; 40 ppm
  percent disease control (eradicant): 100%
Plasmopara viticola [5]; 100 ppm
  percent disease control (eradicant): 100%
Plasmopara viticola [5]; 250 ppm
  percent disease control (eradicant): 100%

## CCCCC(=O)N(c1c(C)cccc1C)C1CCOC1=O (stereo not shown) [3-(N-valeryl-N-2,6-dimethylphenylamino)-gamma-butyrolactone]
[2]
  IC50: 0.1 µg/mL (≈ 0.346 µM)
Pythium vexans Resistant
  ED50 Ratio R/S, Pythium vexans: 400
  IC50: 40 µg/mL (≈ 138 µM)
  ED50 against resistant fungi (in words): substantially better ED50's against resistant fungi than the compounds where R^1 has less than 3 carbon atoms
Plasmopara viticola [4]; [7]
  pest or weed control at 250 ppm: 100%
Plasmopara viticola [4]; in vivo
  Percent Control of GDM: 100% and 60% and 54%
  fungicidal activity toward Grape Downy Mildew (in words): unexpectedly high fungicidal activity toward Grape Downy Mildew
Phytophthora infestans; [6]
  pest or weed control at 250 ppm: 96%
Phytophthora infestans; [12]
  Percent Control of TLB: 8%
Phytophthora infestans; [13]
  Percent Control of TLB: 28%
Phytophthora infestans; [14]
  Percent Control of TLB: 42%
Plasmopara viticola [5]; 40 ppm
  percent disease control (eradicant): 92%
Plasmopara viticola [5]; 100 ppm
  percent disease control (eradicant): 100%

## CCCCCC(=O)N(c1c(C)cccc1C)C1CCOC1=O (stereo not shown) [(CH2)4 CH3]
[2]
  IC50: 0.56 µg/mL (≈ 1.85 µM)
Pythium vexans Resistant
  ED50 Ratio R/S, Pythium vexans: 29
  IC50: 16 µg/mL (≈ 52.7 µM)
  ED50 against resistant fungi (in words): excellent
Pythium vexans Resistant; Table III
  ED50 R/S ratio (in words): excellent
Pythium vexans Resistant; Table III, resistant mutants of Pythium ultimum and/or Pythium vexans
  effect of acquired Control resistance on fungitoxicity (in words): substantially less affected by the acquired Control resistance than any of the compounds in Table III
Plasmopara viticola [4]; [7]
  pest or weed control at 250 ppm: 100%
Plasmopara viticola [4]; in vivo
  base ED50 relative to Grape Downy Mildew producing fungi (natural), versus R^1 is propyl or butyl compounds: four to ten times higher than the R^1 is propyl or butyl compounds
Phytophthora infestans; [6]
  pest or weed control at 250 ppm: 91%
Phytophthora infestans; [12]
  Percent Control of TLB: 7%
Phytophthora infestans; [13]
  Percent Control of TLB: 3%
Phytophthora infestans; [14]
  Percent Control of TLB: 37%

## CCCC(=O)N(c1c(C)cccc1C)C1CCSC1=O (stereo not shown) [CH2 CH2 CH3, Y = S, Z = O, 3-(N-butyryl-2,6-dimethylanilino)-butyrothiolactone]
Plasmopara viticola [4]; [7]
  pest or weed control at 250 ppm: 99%
Phytophthora infestans; [6]
  pest or weed control at 250 ppm: 35%

## Cc1cccc(C)c1N(C(=O)CC(C)C)C1CCOC1=O (stereo not shown) [CH2 CH(CH3)2]
Plasmopara viticola [4]; [7]
  pest or weed control at 250 ppm: 96%
Phytophthora infestans; [6]
  pest or weed control at 250 ppm: 0%

## COCC(=O)N(c1c(C)cccc1C)C(C)C(=O)OC (stereo not shown) [CONTROL, N-methoxyacetyl-N-(1-methoxycarbonylethyl)-2,6-dimethylaniline, reference compound]
[1]
  IC50: 0.036 µg/mL (≈ 0.129 µM)
[2]
  IC50: 0.075 µg/mL (≈ 0.268 µM)
Pythium vexans Resistant
  ED50 Ratio R/S, Pythium vexans: 8,467
  IC50: 635 µg/mL (≈ 2270 µM)
[3]
  ED50 Ratio R/S, Pythium ultimum: 26,000
  IC50: 940 µg/mL (≈ 3370 µM)

## CCCC(=S)N(c1c(C)cccc1C)C1CCOC1=O (stereo not shown) [CH2 CH2 CH3, Y = O, Z = S]
Plasmopara viticola [4]; [7]
  pest or weed control at 250 ppm: 100%
Phytophthora infestans; [6]
  pest or weed control at 250 ppm: 96%

## COCC(=O)N(c1c(C)cccc1C)C1CCOC1=O (stereo not shown) [CH2 OCH3, reference compound]
[1]
  IC50: 0.005 µg/mL (≈ 0.018 µM)
[2]
  IC50: 0.15 µg/mL (≈ 0.541 µM)
Pythium vexans Resistant
  IC50: 400 µg/mL (≈ 1440 µM)
[3]
  ED50 Ratio R/S, Pythium ultimum: 160,000
  IC50: 800 µg/mL (≈ 2880 µM)

## CC(=O)N(c1c(C)cccc1C)C1CCOC1=O (stereo not shown) [CH3]
Plasmopara viticola [4]; [7]
  pest or weed control at 100 ppm: 42%
Phytophthora infestans; [6]
  pest or weed control at 100 ppm: 79%

## CCC(=O)N(c1c(C)cccc1C)C1CCOC1=O (stereo not shown) [C2 H5]
[1]
  IC50: 0.26 µg/mL (≈ 0.995 µM)
[1]; comparison in words
  ED50 relative to the R^1 is propyl compound, P. ultimum (sensitive): more than ten times
[2]
  IC50: > 1 µg/mL
[2]; comparison in words
  ED50 relative to the R^1 is butyl compound, P. vexans (sensitive): more than ten times
  ED50 relative to the R^1 is propyl compound, P. vexans (sensitive): more than two times
Pythium vexans Resistant
  ED50 Ratio R/S, Pythium vexans: < 140
  IC50: 140 µg/mL (≈ 536 µM)
Pythium vexans Resistant; Table III
  ED50 R/S ratio (in words): very good
Pythium vexans Resistant; comparison in words
  ED50 relative to the R^1 is butyl compound, P. vexans (resistant): more than three times that of the R^1 is butyl compound
  ED50 relative to the R^1 is propyl compound, P. vexans (resistant): more than three times that of the R^1 is propyl compound
[3]
  ED50 Ratio R/S, Pythium ultimum: 808
  IC50: 210 µg/mL (≈ 804 µM)
[3]; comparison in words
  ED50 relative to the R^1 is propyl compound, P. ultimum (resistant): more than twice the ED50 for the R^1 is propyl compound
Phytophthora infestans; [6]
  pest or weed control at 250 ppm: 23%
Phytophthora infestans; [8]
  Percent Control of TLB: 0%
Phytophthora infestans; [9]
  Percent Control of TLB: 0%
Phytophthora infestans; [10]
  Percent Control of TLB: 54%
Phytophthora infestans; [11]
  Percent Control of TLB: 80%
